Read-outs that look alike come from different tables or passages of the source. Marks after values point to notes of the source that are not given here.
What was measured:
[1] = system: locally advanced and metastatic pancreatic carcinoma; conditions: first line therapy; n = 171 per arm; cited from earlier work
pancreatic carcinoma [2] = conditions: second line, cited from earlier work
pancreatic carcinoma [3] = assay: Second line therapy following progression on FOLFIRINOX (literature studies); assay type: in vivo, human; conditions: Overall (mean)
Source text: Overall Survival (OS) increased from 6.8 months with Gemcitabine to 11.1 months with FOLFIRINOX (p<0.001). However, the Complete Response Rate (CR) was only 0.6%.

[4] = system: human renal cell carcinoma xenografts (786-0); assay: Human renal cell carcinoma (786-0) xenografts in nude mice; assay type: in vivo; conditions: monotherapy
[5] = system: human renal cell carcinoma xenografts (786-0); conditions: Hubbell, 1990, cited from earlier work
pancreatic tumors = assay type: in vivo, mice; conditions: n = 8 each
Source text: This is highly relevant for improving the likelihood of an antitumor response to checkpoint blockade.
See, FIG. 4, panels labeled “Time-to-tumor progression.”

B16-F10 melanoma tumors = conditions: Day 30, n = 10; for Number of Complete Responses (CR): RECIST v1.1
Description: Rintatolimod together with anti-PD-L1 antibodies were tested for anti-tumor activity against established subcutaneous B16 melanoma tumors in C57BL/6 mice. Mice (10 animals per group) were inoculated with 0.4×10E6 B16-F10 tumor cells in their shaved rear flanks. Seven days later (when tumors reached 0.3 to 0.5 cm in their largest diameter), mice were randomized for tumor sizes, and individually tagged and were allocated to the following six treatment groups: • No treatment (negative controls) • Rintatolimod alone 100 μg/dose 4× • Rintatolimod alone 250 μg/dose 4× • Anti-PD-L1 mAb alone • Rintatolimod 100 μg/dose 4× plus anti-PD-L1 mAb • Rintatolimod 250 μg/dose 4× plus anti-PD-L1 mAb
Rintatolimod was injected intravenously at 100 or 250 micrograms/dose and was repeated 4 times, 5 days apart. Anti-PD-L1 mAb (clone 10F.9G2, BioXCell) was administered intraperitoneally on Days 1 and 3 after each rintatolimod injection at a 200 microgram/dose. Tumors were measured 3 times per week using a set of calipers, taking measurement of 2 opposing diameters and were recorded as tumor areas.
Results were presented as tumor sizes for individual mice throughout time of therapy, average tumor size in each group and survival up to Day 30 (time to euthanasia).
[sequence] and anti-PD-L1 antibodies were tested for anti-tumor activity against established subcutaneous B16 melanoma tumors in C57BL/6 mice. Briefly, mice (10 animals per group) were inoculated with 0.4×10E6 (i.e., 400,000) B16-F10 tumor cells in their shaved rear flanks. Seven days later, mice were randomized to six treatment groups as follows: (Group 1) No treatment (negative controls); (Group 2) [sequence] alone 100 μg/dose 4λ; (Group 3) [sequence] alone 250 μg/dose 4λ; (Group 4) Anti-PD-L1 mAb alone; (Group 5) [sequence] 100 μg/dose 4× plus anti-PD-L1 mAb; (Group 6) [sequence] 250 μg/dose 4× plus anti-PD-L1 mAb. mAb refers to monoclonal antibody.
[sequence] was injected IV at 100 or 250 μg/dose 4 times, 5 days apart. Anti-PD-L1 mAb was administered IP on Days 1 and 3 after each [sequence] dose at 200 μg/dose. Tumors were measured 3 times per week using calipers, measuring 2 opposing diameters. […] Results were presented as tumor sizes for individual mice throughout time of therapy up to Day 30.

[6] = system: human bladder tumor xenografts; assay: Human bladder tumor xenografts in nude mice; assay type: in vivo

## Nc1ccn([C@@H]2O[C@H](CO)[C@@H](O)C2(F)F)c(=O)n1 [Gemcitabine]
[1]
  Complete Response Rates (CR) (%): (0) %
  Complete Response Rates (CR) n: 0 n
  Overall Survival (OS) (months): 6.8 months
  Partial Response Rates (PR) (%): (9.4) %
  Partial Response Rates (PR) n: 16 n
  Progression Free Survival (PFS) (months): 3.3 months
Pancreatic carcinoma [2]; Gilabert, et al. 2017, 72 patients
  Progression Free Survival (PFS) (months): 2.5 months
Pancreatic carcinoma [2]; Viaud, et al 2017, 96 patients
  Overall Survival (OS) (months): 3.7 months
Pancreatic carcinoma [2]; Viaud, et al 2017
  Progression Free Survival (PFS) (months): 2.1 months
Pancreatic carcinoma [2]; da Rocha, et al. 2015, 20 patients
  Overall Survival (OS) (months): 5.7 months
Pancreatic carcinoma [2]; da Rocha, et al. 2015
  Progression Free Survival (PFS) (months): 2.0 months
Pancreatic carcinoma [3]; weighted average
  Partial Response Rates (PR) (%): 6.4%*
  Progression Free Survival (PFS) (months): 2.24* months
Pancreatic carcinoma [3]; weighted average based on n in each study
  Overall Survival (OS) (months): 4.05* months

## polyriboinosinic: polyribocytidylic(12:1)uridylic acid
[4]
  tumor regression: tumor regression was observed in each mouse
[4]; while 100% of the control group had died
  mice free of residual tumor: 90%
[5]; p<0.001
  tumor growth inhibition: statistically significant
[5]; p<0.002
  survival: statistically significant
Pancreatic tumors; difference to control (33)
  Increased Survival Over Control: 0 days
Pancreatic tumors; initial results
  Time to Progression Median-Days: 33 days
B16-F10 melanoma tumors; rintatolimod 100 μg/dose 4× IV
  Number of Partial Responses (PR): 0
  Total # Tumor Responses CR + PR: 0
  Number of Complete Responses (CR): 0
B16-F10 melanoma tumors; rintatolimod 250 μg/dose 4× IV
  Number of Partial Responses (PR): 0
  Total # Tumor Responses CR + PR: 0
  Number of Complete Responses (CR): 0
[6]
  growth of human bladder tumor xenografts: significantly inhibited
